Measurements published in BindingDB's records for doi:10.1016/j.bmcl.2009.07.031 (Merck Research Laboratory, 2009).

Columns and labels:
[1] = Inhibition of HIV1 reverse transcriptase by SPA assay
[2] = Inhibition of HIV1 reverse transcriptase Y181C mutant by SPA assay

Row | Structure (SMILES) | IC50 [1] [nM] | IC50 [2] [nM]
1 | N#Cc1ccc(NC(=O)CSC(=O)N2CCCc3cc(Cl)cc(Cl)c32)c(Cl)c1 | 7 | 95
2 | NS(=O)(=O)c1ccc(NC(=O)CNC(=O)N2CCCc3cc(Cl)cc(Cl)c32)c(Cl)c1 | 336 | –
3 | NS(=O)(=O)c1ccc(NC(=O)CCC(=O)N2CCCc3cc(Cl)cc(Cl)c32)c(Cl)c1 | 194 | –
4 | Cc1cccc2c1N(C(=O)SCC(=O)Nc1ccc(S(N)(=O)=O)cc1Cl)CCC2 | 6 | 61
5 | NCCCNC(=O)c1ccc(NC(=O)CSC(=O)N2CCCc3cc(Cl)cc(Cl)c32)c(Cl)c1 | 2 | 7
6 | NS(=O)(=O)c1ccc(NC(=O)CSC(=O)N2CCCc3cc(Cl)cc(Cl)c32)c(Cl)c1 | – | 4
7 | O=C(CSC(=O)N1CCCc2cc(Cl)cc(Cl)c21)Nc1ccc(C(=O)NCc2ccccc2)cc1Cl | 2 | 4
8 | Cc1ccc2c(c1)CCCN2C(=O)SCC(=O)Nc1ccc(S(N)(=O)=O)cc1Cl | – | 1300
9 | NS(=O)(=O)c1ccc(NC(=O)COC(=O)N2CCCc3cc(Cl)cc(Cl)c32)c(Cl)c1 | 19 | 116
10 | CS(=O)(=O)c1ccc(NC(=O)CSC(=O)N2CCCc3cc(Cl)cc(Cl)c32)c(Cl)c1 | 4 | 11
11 | O=C(CSC(=O)N1CCCc2cc(Cl)cc(Cl)c21)Nc1ccccc1Cl | 4 | 175
12 | NS(=O)(=O)c1ccc(NC(=O)CSC(=O)N2CCCc3cccc(Cl)c32)c(Cl)c1 | 2 | 31
13 | Cc1cc(C)c(N(C)C(=O)SCC(=O)Nc2ccc(S(N)(=O)=O)cc2Cl)c(C)c1 | 8 | 80
14 | NS(=O)(=O)c1ccc(NC(=O)CSC(=O)N2CCCc3cc(Cl)ccc32)c(Cl)c1 | 8 | –
